According to BindingDB's records for doi:10.1016/j.str.2004.10.004 (Plexxikon, 2004):

Tests used:
[1] = target: T1, cAMP-specific 3',5'-cyclic phosphodiesterase 7B [91-450] (Homo sapiens, UniProt Q9NP56); experiment: Phosphodiesterase (PDE) Inhibition Assay
T1 construct: 91-450

[2] = target: High affinity cAMP-specific and IBMX-insensitive 3',5'-cyclic phosphodiesterase 8A (Homo sapiens, UniProt O60658); experiment: Phosphodiesterase (PDE) Inhibition Assay
[3] = target: T2, cGMP-inhibited 3',5'-cyclic phosphodiesterase 3B [650-1084] (Homo sapiens, UniProt Q13370); experiment: Phosphodiesterase (PDE) Inhibition Assay
T2 construct: 650-1084

[4] = target: T3, cGMP-dependent 3',5'-cyclic phosphodiesterase [574-941] (Homo sapiens, UniProt O00408); experiment: Phosphodiesterase (PDE) Inhibition Assay
T3 construct: 574-941

[5] = target: T4, cGMP-specific 3',5'-cyclic phosphodiesterase [531-875] (Homo sapiens, UniProt O76074); experiment: Phosphodiesterase (PDE) Inhibition Assay
T4 construct: 531-875

[6] = target: T5, Isoform 4 of Dual 3',5'-cyclic-AMP and -GMP phosphodiesterase 11A (PDE11A1) 35-489] (Homo sapiens, UniProt Q9HCR9); experiment: Phosphodiesterase (PDE) Inhibition Assay
T5 sequence (Q9HCR9 whole entry): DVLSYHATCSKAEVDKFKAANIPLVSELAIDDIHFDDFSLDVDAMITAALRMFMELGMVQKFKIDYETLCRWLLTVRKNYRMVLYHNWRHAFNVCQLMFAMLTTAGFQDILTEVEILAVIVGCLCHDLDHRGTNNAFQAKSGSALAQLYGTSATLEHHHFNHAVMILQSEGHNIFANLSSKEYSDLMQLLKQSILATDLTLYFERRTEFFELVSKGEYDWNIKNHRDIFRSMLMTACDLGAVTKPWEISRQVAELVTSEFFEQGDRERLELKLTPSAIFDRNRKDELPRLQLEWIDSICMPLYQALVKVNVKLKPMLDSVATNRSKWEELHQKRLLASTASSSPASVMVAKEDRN

[7] = target: cAMP-specific 3',5'-cyclic phosphodiesterase 4D [372-376,381-715,S375G,I381V,S383G,G384S,V385H,K386M) (Homo sapiens, UniProt Q08499, S375G/I381V/S383G/G384S/V385H/K386M); experiment: Phosphodiesterase (PDE) Inhibition Assay
[8] = target: Dual specificity calcium/calmodulin-dependent 3',5'-cyclic nucleotide phosphodiesterase 1B (Homo sapiens, UniProt Q01064); experiment: Phosphodiesterase (PDE) Inhibition Assay; conditions: pH 7.5; 30 °C
[9] = target: T6, cAMP and cAMP-inhibited cGMP 3',5'-cyclic phosphodiesterase 10A [432-779] (Homo sapiens, UniProt Q9Y233); experiment: Phosphodiesterase (PDE) Inhibition Assay
T6 construct: 432-779

[10] = target: T7, High affinity cGMP-specific 3',5'-cyclic phosphodiesterase 9A [226-593] (Homo sapiens, UniProt O76083)
T7 construct: 226-593
T7 sequence (O76083 226-593): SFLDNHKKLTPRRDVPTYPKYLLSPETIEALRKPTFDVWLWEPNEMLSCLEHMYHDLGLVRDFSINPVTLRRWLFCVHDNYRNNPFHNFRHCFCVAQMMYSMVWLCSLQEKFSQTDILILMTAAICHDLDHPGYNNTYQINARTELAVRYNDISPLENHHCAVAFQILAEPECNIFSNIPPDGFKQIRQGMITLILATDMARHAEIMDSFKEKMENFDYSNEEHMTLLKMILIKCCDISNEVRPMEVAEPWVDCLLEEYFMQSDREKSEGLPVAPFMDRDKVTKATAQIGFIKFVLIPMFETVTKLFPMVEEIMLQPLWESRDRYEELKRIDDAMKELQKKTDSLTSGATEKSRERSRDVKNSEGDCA

T6 sequence (Q9Y233 708-1055): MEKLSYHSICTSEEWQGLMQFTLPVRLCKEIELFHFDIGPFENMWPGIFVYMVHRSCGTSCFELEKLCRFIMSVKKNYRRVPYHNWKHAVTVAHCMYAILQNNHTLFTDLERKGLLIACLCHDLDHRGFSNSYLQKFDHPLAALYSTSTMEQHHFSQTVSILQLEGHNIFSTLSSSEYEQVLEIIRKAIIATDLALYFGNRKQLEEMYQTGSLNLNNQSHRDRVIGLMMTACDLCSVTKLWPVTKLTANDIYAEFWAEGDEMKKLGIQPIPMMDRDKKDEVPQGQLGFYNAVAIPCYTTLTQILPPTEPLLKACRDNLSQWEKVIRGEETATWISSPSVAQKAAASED
T1 sequence (Q9NP56 91-450): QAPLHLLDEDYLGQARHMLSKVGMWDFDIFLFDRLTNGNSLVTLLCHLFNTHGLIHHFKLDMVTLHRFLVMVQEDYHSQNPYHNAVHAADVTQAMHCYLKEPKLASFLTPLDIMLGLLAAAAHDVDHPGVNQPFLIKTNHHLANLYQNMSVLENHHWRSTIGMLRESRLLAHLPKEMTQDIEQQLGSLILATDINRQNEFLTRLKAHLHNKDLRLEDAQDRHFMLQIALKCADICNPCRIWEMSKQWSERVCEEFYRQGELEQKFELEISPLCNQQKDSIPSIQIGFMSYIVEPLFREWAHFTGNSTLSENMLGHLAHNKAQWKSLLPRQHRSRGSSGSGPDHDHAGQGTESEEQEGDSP
T2 sequence (Q13370 650-1084): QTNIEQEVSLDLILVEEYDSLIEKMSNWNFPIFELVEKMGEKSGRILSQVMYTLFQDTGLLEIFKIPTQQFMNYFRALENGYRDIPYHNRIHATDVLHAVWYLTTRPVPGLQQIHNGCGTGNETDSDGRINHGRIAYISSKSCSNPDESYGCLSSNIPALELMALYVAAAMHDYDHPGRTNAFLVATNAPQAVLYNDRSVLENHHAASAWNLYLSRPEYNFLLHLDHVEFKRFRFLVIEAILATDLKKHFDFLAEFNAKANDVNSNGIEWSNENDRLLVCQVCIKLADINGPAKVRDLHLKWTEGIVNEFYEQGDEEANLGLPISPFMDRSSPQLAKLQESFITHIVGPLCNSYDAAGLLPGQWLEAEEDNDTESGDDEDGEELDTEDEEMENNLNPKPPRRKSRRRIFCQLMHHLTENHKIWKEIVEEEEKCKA
High affinity cAMP-specific and IBMX-insensitive 3',5'-cyclic phosphodiesterase 8A, sequence (O60658 whole entry): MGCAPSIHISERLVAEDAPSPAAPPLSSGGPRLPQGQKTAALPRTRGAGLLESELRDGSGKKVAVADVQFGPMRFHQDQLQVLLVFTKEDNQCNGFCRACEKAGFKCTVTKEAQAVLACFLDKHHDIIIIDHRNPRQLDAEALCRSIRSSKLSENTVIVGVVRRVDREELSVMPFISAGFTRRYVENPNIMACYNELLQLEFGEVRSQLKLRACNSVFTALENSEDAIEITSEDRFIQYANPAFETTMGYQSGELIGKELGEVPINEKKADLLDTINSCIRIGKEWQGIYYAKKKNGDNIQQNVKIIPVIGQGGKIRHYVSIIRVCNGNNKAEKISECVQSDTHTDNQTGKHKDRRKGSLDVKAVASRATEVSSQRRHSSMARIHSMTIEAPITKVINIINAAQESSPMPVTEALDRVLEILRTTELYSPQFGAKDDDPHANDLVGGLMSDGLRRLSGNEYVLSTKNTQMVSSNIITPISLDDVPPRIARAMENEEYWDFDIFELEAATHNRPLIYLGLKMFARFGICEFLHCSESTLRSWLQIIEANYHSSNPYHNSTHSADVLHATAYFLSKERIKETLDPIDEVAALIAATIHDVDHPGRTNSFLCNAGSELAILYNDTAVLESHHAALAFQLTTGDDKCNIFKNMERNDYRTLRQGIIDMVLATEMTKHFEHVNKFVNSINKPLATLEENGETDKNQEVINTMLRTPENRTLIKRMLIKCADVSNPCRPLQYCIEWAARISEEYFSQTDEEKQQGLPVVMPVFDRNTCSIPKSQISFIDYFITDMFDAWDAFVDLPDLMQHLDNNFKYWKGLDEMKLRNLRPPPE
T3 sequence (O00408 574-941): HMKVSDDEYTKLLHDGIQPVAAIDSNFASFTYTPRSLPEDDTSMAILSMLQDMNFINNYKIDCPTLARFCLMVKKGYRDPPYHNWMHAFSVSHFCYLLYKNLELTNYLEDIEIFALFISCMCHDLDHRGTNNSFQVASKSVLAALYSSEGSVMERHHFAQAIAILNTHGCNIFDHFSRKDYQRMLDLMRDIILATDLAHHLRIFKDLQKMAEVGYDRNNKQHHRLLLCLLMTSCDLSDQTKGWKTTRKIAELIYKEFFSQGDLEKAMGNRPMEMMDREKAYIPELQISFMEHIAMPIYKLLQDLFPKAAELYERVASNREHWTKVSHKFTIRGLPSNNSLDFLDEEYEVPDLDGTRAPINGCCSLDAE
Dual specificity calcium/calmodulin-dependent 3',5'-cyclic nucleotide phosphodiesterase 1B, sequence (Q01064 whole entry): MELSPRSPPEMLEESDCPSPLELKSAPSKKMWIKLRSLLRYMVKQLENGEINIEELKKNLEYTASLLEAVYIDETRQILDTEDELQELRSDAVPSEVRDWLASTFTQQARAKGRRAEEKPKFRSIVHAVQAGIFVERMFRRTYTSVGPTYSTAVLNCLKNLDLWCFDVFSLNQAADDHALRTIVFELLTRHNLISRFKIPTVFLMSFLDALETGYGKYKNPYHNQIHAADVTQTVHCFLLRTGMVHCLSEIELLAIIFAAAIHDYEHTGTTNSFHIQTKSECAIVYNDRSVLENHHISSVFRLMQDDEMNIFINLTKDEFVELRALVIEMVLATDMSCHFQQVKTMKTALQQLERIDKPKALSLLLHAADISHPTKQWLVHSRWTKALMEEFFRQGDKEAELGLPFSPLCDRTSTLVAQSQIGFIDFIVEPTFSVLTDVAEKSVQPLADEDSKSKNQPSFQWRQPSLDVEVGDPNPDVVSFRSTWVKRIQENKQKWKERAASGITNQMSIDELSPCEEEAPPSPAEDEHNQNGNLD

| Compound | IC50 [1] | IC50 [2] | IC50 [3] | IC50 ([4]; pH 7.5, 30 °C) | IC50 [5] | IC50 [6] | IC50 [7] | IC50 [8] | IC50 [9] | IC50 [10] | IC50 [4] |
| --- | --- | --- | --- | --- | --- | --- | --- | --- | --- | --- | --- |
| COc1ccc(C(C)=NOC(N)=O)cc1OC1CCCC1 [(E)-{1-[3-(cyclopentyloxy)-4-methoxyphenyl]ethylidene}amino carbamate] | 0.99 µM | 120 µM | 9.4 µM | 89 µM | 53 µM | 57 µM | 1 µM | 190 µM | 27 µM | > 200 µM | – |
| COc1cc(-c2ccc(=O)[nH]n2)ccc1OC(F)F [6-[4-(difluoromethoxy)-3-methoxyphenyl]-2,3-dihydropyridazin-3-one] | – | 160 µM | 1.5 µM | > 200 µM | 81 µM | 140 µM | – | > 200 µM | 14 µM | > 200 µM | – |
| CCCc1nc(C)c2c(=O)[nH]c(-c3cc(S(=O)(=O)N4CCN(CC)CC4)ccc3OCC)nn12 | – | 57 µM | – | – | – | 0.24 µM | – | – | 0.88 µM | – | 3.1 µM |
| COc1ccc(C2(C#N)CCC(C(=O)O)CC2)cc1OC1CCCC1 (stereo not drawn) [Ariflo] | – | 7 µM | 87 µM | 160 µM | 53 µM | 21 µM | – | 87 µM | 73 µM | > 200 µM | – |
| O=C(Nc1c(Cl)cncc1Cl)c1ccc(OC(F)F)c(OCC2CC2)c1 [DAXAS] | > 200 µM | > 200 µM | > 200 µM | – | 17 µM | 25 µM | – | > 200 µM | > 200 µM | > 200 µM | > 200 µM |
| CCCOc1cc(C2(C)CNC(=O)O2)ccc1OC (racemic) [5-(4-methoxy-3-propoxyphenyl)-5-methyl-1,3-oxazolidin-2-one] | – | > 200 µM | > 200 µM | > 200 µM | > 200 µM | > 200 µM | – | > 200 µM | 63 µM | > 200 µM | – |
| COc1ccc(C(=O)Nc2c(Cl)cncc2Cl)cc1OC1CCCC1 [3-(cyclopentyloxy)-N-(3,5-dichloropyridin-4-yl)-4-methoxybenzamide] | – | > 200 µM | 11 µM | – | 3.5 µM | 1.6 µM | – | 68 µM | – | > 200 µM | 54 µM |
| CN1CC(=O)N2[C@H](c3ccc4c(c3)OCO4)c3[nH]c4ccccc4c3C[C@@H]2C1=O | 74 µM | > 200 µM | 280 µM | – | – | – | – | 50 µM | 19 µM | 150 µM | 130 µM |
| COc1ccc([C@@H]2CNC(=O)C2)cc1OC1CCCC1 (racemic) [Adeo] | > 200 µM | > 200 µM | > 200 µM | > 200 µM | – | > 200 µM | – | > 200 µM | – | > 200 µM | – |
